The results in this text go back to article PMC4026384, “Antibacterial Activity of THAM Trisphenylguanide against Methicillin-Resistant Staphylococcus aureus” (PLoS ONE, 2014).

Structures are written as SMILES. ≈ marks a conversion by molar mass, not a printed value.

For one series, the system named is MRSA USA300. Nature of the series: Bacterial viability assay. The format is cell-based, Staphylococcus aureus. Particulars: one hour in PBS, CFU, ± SEM. The procedure: (§1) Supplementary file pone.0097742.s003.doc: Table S1 Bacterial viability assays. Bacteria were grown at 37°C to mid-log phase (OD600 ∼0.4). The bacteria were diluted to approximately 10^4 to 10^5 colony forming units (CFU) per milliliter and added to a solution of phosphate buffered saline (PBS, 16 mM phosphate, 0.14 M NaCl, pH 7.2) containing the compound at varied concentrations. Samples were incubated at 37°C for one hour and then plated on Luria Bertani (LB) agar at appropriate dilutions in PBS. The plates were incubated overnight at 37°C and colonies enumerated the following day. IC50s were calculated from graphs of CFU as a function of compound concentration. Chlorhexidine was used as a positive control. […] (DOC) Click here for additional data file.
(§2) Bacterial viability assays. Bacteria were grown at 37°C to mid-log phase (OD600 ~0.4). The bacteria were diluted to approximately 10^4 to 10^5 colony forming units (CFU) per milliliter and added to a solution of phosphate buffered saline (PBS, 16 mM phosphate, 0.14 M NaCl, pH 7.2) containing the compound at varied concentrations. Samples were incubated at 37°C for one hour and then plated on Luria Bertani (LB) agar at appropriate dilutions in PBS. The plates were incubated overnight at 37°C and colonies enumerated the following day. IC50s were calculated from graphs of CFU as a function of compound concentration. Chlorhexidine was used as a positive control.

The next series has as its system P. aeruginosa PA01. The experiment in a line: Bacterial viability assay. The format is cell-based, Pseudomonas aeruginosa. Particulars: one hour in PBS, CFU, ± SEM. The procedure:
as §1, §2

The subject of another series is E. faecalis V583. The experiment in a line: Bacterial viability assay. Format: cell-based, Enterococcus faecalis. Particulars: one hour in PBS, CFU, ± SEM. The procedure:
as §1, §2

The next series relates to E. faecalis MSU#10. Nature of the series: Bacterial viability assay. The format is cell-based, Enterococcus faecalis. Conditions: E. faecalis MSU#10; one hour in PBS, CFU; ± SEM; read-out: IC50. The protocol: as §1, §2
The test system of the next series is S. aureus RN4220. Nature of the series: Bacterial viability assay. The format is cell-based, Staphylococcus aureus. Conditions: one hour in PBS, CFU, ± SEM. The procedure:
(§3) Supplementary file pone.0097742.s003.doc: Table S1 Bacterial viability assays. Bacteria were grown at 37°C to mid-log phase (OD600 ∼0.4). The bacteria were diluted to approximately 10^4 to 10^5 colony forming units (CFU) per milliliter and added to a solution of phosphate buffered saline (PBS, 16 mM phosphate, 0.14 M NaCl, pH 7.2) containing the compound at varied concentrations. Samples were incubated at 37°C for one hour and then plated on Luria Bertani (LB) agar at appropriate dilutions in PBS. The plates were incubated overnight at 37°C and colonies enumerated the following day. IC50s were calculated from graphs of CFU as a function of compound concentration. Chlorhexidine was used as a positive control. Included are those guanide (G), biguanide (BG), phenylguanide (ΦG) compounds that had some antibacterial activity in an initial screen at 30 and 100 µM, as well as their and parent amines. Compounds synthesized from 1,4-butanediamine, 1,6-hexanediamine, trisethylaminomelamine, trisbutylaminomelamine, and the dendrimer PAMAM (G0) were not active against E. coli, P aeruginosa, or S. aureus so they were not tested against the remaining bacteria (data not shown). (DOC) Click here for additional data file.
as §3, with “Bacterial” for “Supplementary file pone.0097742.s003.doc: Table S1 Bacterial”, “~0.4).” for “∼0.4).”, “μM,” for “µM,”, “shown).” for “shown). (DOC) Click here for additional data file.”

Another series deals with E. coli K91. Nature of the series: Bacterial viability assay. The format is cell-based, Escherichia coli. Particulars: one hour in PBS, CFU, ± SEM. The protocol: as §1, §2
In series [1] the test system is human breast cancer cell line MDA-MB-231. The experiment in a line: Cell toxicity assay (MTS). Format: cell-based. Particulars: MDA-231; for CC50: MTS assay, concentration which killed 50% of the cells. The procedure:
(§4) The HaCaT cell line was grown in Epilife medium (MEPI500Ca) with human keratinocyte growth supplement (Invitrogen, San Diego, CA). Both types of cells were harvested using Tryspin/EDTA and diluted to 1×10^5 cells per well in a 96-well plate. Ten concentrations covering five orders of magnitude were tested with six replicates per concentration. […] MTS/PMS solution (Promega, Madison, WI) was added to the wells and absorbance was measured at 490 nm two to four hours later. Data was analyzed using GraphPad Prism version 5.0 (GraphPad Software, La Jolla, CA) using a variable slope inhibition dose response curve.
In general terms: Tetrazolium assays rely on reduction of a dye to a coloured formazan, in cell work by metabolically active cells.

The subject of series [2] is HaCaT human keratinocytes. Nature of the series: Cell toxicity assay (MTS). The format is cell-based. Conditions: for CC50: MTS assay, concentration which killed 50% of the cells. The procedure: as §4
The subject of the next series is A. baumannii ATCC 19606. The experiment in a line: Bacterial viability assay. Format: cell-based, Acinetobacter baumannii. Particulars: one hour in PBS, CFU, ± SEM. The procedure: as §1, §2
For series [3], the system named is A. baumannii ATCC BAA1605. The experiment in a line: Bacterial viability assay. Format: cell-based, Acinetobacter baumannii. Conditions: one hour in PBS, CFU, ± SEM. The protocol: as §1, §2

As to `N=C(NCCCCN(CCCNC(=N)Nc1ccccc1)C(=N)Nc1ccccc1)Nc1ccccc1` [Spermidine-3ΦG], the IC50 (commonly the midpoint of a concentration-inhibition curve) with MRSA USA300 is above 100 µM; in the series on P. aeruginosa PA01, above 100 µM; in the series on E. faecalis V583, above 100 µM; in the series with E. faecalis MSU#10 it was above 100 µM; in the series with S. aureus RN4220, above 100 µM; in the series on E. coli K91, 3.2 ± 0.9 µM. Further, the IC50 (with A. baumannii ATCC 19606; in series [3]) was above 100 µM in each case. Besides, the “Relative to chlorhexidine (factor by which cytotoxicity was reduced)” value was 170 in series [1] and 210 in series [2]. The figures for the CC50 in series [1] and in series [2] were 430 µg/mL (≈ 861 µM) and 400 µg/mL (≈ 801 µM), respectively.

On to `N=C(NCCCN(CCCCN(CCCNC(=N)Nc1ccccc1)C(=N)Nc1ccccc1)C(=N)Nc1ccccc1)Nc1ccccc1` [Spermine-4ΦG], for which the IC50 with MRSA USA300 was above 100 µM; in the series on P. aeruginosa PA01 it was above 100 µM; in the series with E. faecalis V583, above 100 µM; with E. faecalis MSU#10, above 100 µM; in the series with E. coli K91, 23 ± 16 µM; in the series on A. baumannii ATCC 19606, at least 100 µM. In addition, the IC50 in series [3] was at least 100 µM. In addition, the “Relative to chlorhexidine (factor by which cytotoxicity was reduced)” value in series [1] is reported as above 43; in series [2], 56. For the same compound, the CC50 (commonly the concentration that lowers cell viability or growth by half) is above 110 µg/mL in series [1] and 110 µg/mL (≈ 163 µM) in series [2].

On to `N=C(N)NCCCCCCNc1nc(NCCCCCCNC(=N)N)nc(NCCCCCCNC(=N)N)n1` [THAM-3G], for which the IC50 in the series on MRSA USA300 was above 100 µM; with P. aeruginosa PA01, 14 ± 3 µM; with E. faecalis V583, above 100 µM; in the series with E. faecalis MSU#10, above 100 µM; in the series with S. aureus RN4220, above 100 µM; in the series with E. coli K91, 31 ± 12 µM. Moreover, the IC50 in the series with A. baumannii ATCC 19606 worked out at 23 ± 14 µM; in series [3], 14 ± 4 µM. Moreover, the “Relative to chlorhexidine (factor by which cytotoxicity was reduced)” value in [1] is listed as 29; in series [2], 33. In addition, the CC50 came to 74 µg/mL (≈ 135 µM) in [1] and 63 µg/mL (≈ 115 µM) in series [2].

Consider `NCCCCCCNc1nc(NCCCCCCN)nc(NCCCCCCN)n1` [THAM], for which the half-maximal inhibitory concentration (IC50) in the series on MRSA USA300, with P. aeruginosa PA01, with E. faecalis V583, with E. faecalis MSU#10, in the series on S. aureus RN4220 and in the series on E. coli K91 was above 100 µM each time. For the same compound, the IC50 (in the series with A. baumannii ATCC 19606; in series [3]) was above 100 µM in each case. In addition, the “Relative to chlorhexidine (factor by which cytotoxicity was reduced)” value in [1] is reported as above 290; in series [2], 100. For the same compound, the CC50 in series [1] is above 770 µg/mL; in series [2], 200 µg/mL (≈ 472 µM).

For the compound `N=C(NCCCCCCCCNc1nc(NCCCCCCCCN)nc(NCCCCCCCCNC(=N)Nc2ccccc2)n1)Nc1ccccc1` [TOAM-2ΦG], the IC50 was 0.6 ± 0.32 µM with MRSA USA300; 1.6 ± 0.4 µM in the series on P. aeruginosa PA01; 11 ± 3 µM with E. faecalis V583; 6.1 ± 4.9 µM in the series on E. faecalis MSU#10; 2.4 ± 0.1 µM in the series on S. aureus RN4220; 0.75 ± 0.09 µM in the series on E. coli K91. Further, the values for the IC50 (with A. baumannii ATCC 19606; in series [3]) were 0.64 ± 0.19 µM and 0.96 ± 0.02 µM, respectively. In addition, the “Relative to chlorhexidine (factor by which cytotoxicity was reduced)” value in series [2] is recorded as 1.6. In [2], this compound showed a CC50 of 3.1 µg/mL (≈ 4.17 µM).
